This note sets out measurements from PMC12723449, “From Pharmacophore to Warhead: NAD^+‐Targeting Triazoles as Mechanism‐Based Sirtuin Inhibitors” (Angewandte Chemie (International Ed. in English), 2025).

Each structure is given as a SMILES string.

Assay [1] addresses T1, HEK293T cells overexpressing a NanoLuc–SIRT2 fusion protein (Homo sapiens, UniProt Q8IXJ6).
T1 construct: transfected HEK293T cells expressing the NanoLuc-tagged SIRT250-356 fusion protein were used instead of transient; expressed in transfected cells; host or cells: HEK293T (stably transfected)
T1 sequence (Q8IXJ6 50-356 limits assumed): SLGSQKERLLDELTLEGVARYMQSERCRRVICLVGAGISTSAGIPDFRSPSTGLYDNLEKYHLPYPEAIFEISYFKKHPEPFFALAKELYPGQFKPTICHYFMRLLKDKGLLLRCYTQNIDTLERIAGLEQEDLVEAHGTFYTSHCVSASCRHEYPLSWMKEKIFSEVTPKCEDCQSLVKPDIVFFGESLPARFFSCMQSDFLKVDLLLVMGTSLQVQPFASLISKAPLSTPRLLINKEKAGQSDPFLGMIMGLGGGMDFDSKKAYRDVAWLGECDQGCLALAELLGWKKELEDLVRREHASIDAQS
As to the kind of experiment: CE-ESI-MS analysis of adducts formed in cellulo. The class given is cell-based. As to conditions: 20 µM, 3 h.

The target of a further assay is T2, SIRT2 (Homo sapiens, UniProt Q8IXJ6).
T2 construct: For assay experiments, strep-tagged human SIRT1134−747 and SIRT256-356 were expressed and purified as previously; Strep-tag; made in house; host or cells: E. coli BL21 Star (DE3)
T2 sequence (Q8IXJ6 56-356 limits assumed): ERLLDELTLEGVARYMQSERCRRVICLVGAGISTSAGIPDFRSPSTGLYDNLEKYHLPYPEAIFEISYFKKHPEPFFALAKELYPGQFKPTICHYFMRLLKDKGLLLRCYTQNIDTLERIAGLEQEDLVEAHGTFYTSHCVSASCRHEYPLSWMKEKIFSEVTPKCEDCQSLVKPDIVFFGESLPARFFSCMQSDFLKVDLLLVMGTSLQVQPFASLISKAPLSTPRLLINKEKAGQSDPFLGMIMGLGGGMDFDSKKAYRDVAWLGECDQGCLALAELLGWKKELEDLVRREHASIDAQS
As to the kind of experiment: Kinetic analysis via continuous enzyme demyristoylation inhibition assay. It counts as biochemical. As to conditions: myristoylated substrate, two-step inhibition model; read-out: K I app. As to the method:
solution was diluted 100-fold to a total volume of 40 µL with substrate (final concentration of 40 nM), NAD+ (final concentration of 500 µM) and DMSO (final concentration of 5 % (v/v)) and transferred to a black 384-well microplate (Optiplate 384 F, PerkinElmer). For NAD+ preincubation, 0.1 µL of inhibitor solution (40× IC50, […] after jump dilution), 0.1 µL of SIRT2 (400 nM, final concentration of 1 nM after jump dilution) and 0.2 µL of NAD+ ([…] concentration of 500 µM after jump dilution) were preincubated for 30 min. […] The change in fluorescence was monitored with a microplate reader (λEx = 485 nm, λEm = 530-10 nm, BMG POLARstar Optima, BMG Labtech, Germany) every 30 s for 20 min. […] Reaction rates were obtained from the slope of the fluorescence signal over time and converted to product concentration using calibration curves, assuming equal fluorescence intensities for substrate and product, as […]
Ft = time-dependent signal resulting from product formation (in µM, calculated from AU values), F0 = Y-intercept = background signal at reaction initiation (in µM, calculated from AU values), vi = initial product formation velocity (in µM/min), vs = final/steady-state product formation velocity (in µM/min), t = incubation time after enzyme addition (in min), kobs = observed rate of time-dependent inhibition from initial vi to final vs (in min-1). […]

Consider `Cc1cc(C)nc(SCC(=O)Nc2ncc(Cc3cccc(OCc4c[nH]nn4)c3)s2)n1` [Compound 7], for which the “ADPR adduct formation in cells by CE-ESI-MS/MS” value in assay [1] was “confirmed formation of 7–ADPR in cellulo”.

For `CCCCCCCCCCCCc1cn(CCCC[C@H](NC(=O)[C@H](CCCCN)NC(=O)[C@@H]2CCCN2C(=O)[C@H](CC(C)C)NC(=O)[C@H](C)NC(=O)[C@H](CCC(=O)O)NC(C)=O)C(=O)N[C@H](C(=O)NCC(=O)NCC(N)=O)[C@@H](C)O)nn1` [Compound 6], the Ki at SIRT2 is 24.7 µM.
